These results are taken from patent publication US20120128657A1, “SYNTHETIC MACROCYCLIC COMPOUNDS AND METHODS FOR TREATING CANCER” (priority 2007, published 2012).

For orientation: zone of inhibition means the size of the clear area around the sample on an inoculated plate. Higher therefore signals a stronger effect on the plate. As usually defined, the IC50 is the midpoint of a concentration-inhibition curve. A low value points to higher potency.

Assay [1] concerns Bacillus subtilis (ATCC 49343). The assay is described as follows: Modified disc diffusion antimicrobial assay. The format is cell-based. The conditions noted are these: ATCC49343, B. subtilis, 50 μg/disk, 6 mm disks, 37° C., 18 hours. How it is done:
Antimicrobial Assays Compounds were tested for antimicrobial activity against Escherichia coli (ATCC 8739) and Bacillus subtilis (ATCC 49343) and for antifungal activity against Candida albicans (ATCC 90027) using a modified disc diffusion assay. Briefly, agar plates seeded with suspensions of bacteria or fungi were prepared by adding 500 μL of a 24 h culture of bacteria to 100 mL of autoclaved Antibiotic Medium 2 (AB2) containing 1% agar and cooled to 55° C., or of fungi to Sabouraud Dextrose Agar (SDA) at 55° C. Seeded liquid agar (10 mL) was transferred immediately to square Petri dishes and allowed to cool for 1 h. Controls used for C. albicans, E. coli and B. subtilis included amphotericin B (25 μg), ampicillin (50 μg) and choloramphenicol (12.5 μg), respectively. Sterile disks (6 mm) containing control antibiotics or one of the macrocycles ([…]) were placed onto the agar and plates were incubated at 37° C. for 18 hours Inhibitory activity was measured by the zones of inhibition.
(In general: Agar diffusion results depend on both activity and mobility in agar.)

Assay [2] relates to 4T1 breast tumor cells. Briefly: In vitro wound-healing assay. It counts as cell-based, mouse. The conditions noted are these: 4T1 cells, medium with 10% FBS, overnight incubation at 37° C. How it is done:
In vitro Wound-Healing Assay: 4T1 breast tumor cells in medium containing 10% fetal bovine serum (FBS) were seeded into wells of 24-multiwell plates (Becton-Dickinson). After they grew to confluence, wounds were made with sterile pipette tips. Cells were washed with Phosphate Buffered Saline (PBS) and refreshed with medium with or without 10% FBS. After overnight incubation at 37° C., cells were fixed and photographed according to protocols described by Yang, S, and Huang, X.-Y. J. Biol. Chem. 2005, 280, 27130-27137; and Shan, D.; Chen, L.; Njardarson, J. T.; Gaul, C.; Ma, X.; Danishefsky, S. J.; and Huang, X.-Y. Proc. Natl. Acad. Sci. U.S.A. 2005, 102, 3772-3776, both the Yang and Shan references are incorporated herein by reference.

For assay [3], the system named is 4T1 breast tumor cells. Briefly: Chamber cell migration assay (Boyden chambers). The format is cell-based. As to conditions: Mus musculus, 10% FBS in lower chamber, 4 h. How it is done:
Chamber Cell Migration Assay: Cell migration was assayed in Boyden chambers [8.0 μm pore size polyethylene terephthalate membrane, FALCON cell culture insert (Becton-Dickinson)]. Cells were trypsinized and counted. 5-10×10^4 cells in serum free medium (300 μl) were added to the upper chamber and 500 μl of appropriate medium with 10% FBS were added to the lower chamber. Transwells were incubated for 4 h at 37° C. Cells on the inside of the transwell inserts were removed with a cotton swab, and cells on the underside of the insert were fixed and stained. Photographs of three random fields were taken and the number of cells counted to calculate the average number of cells that had transmigrated. Results in the form of IC50 values obtained from the chamber migration assay using 4T1 breast tumor cells for compounds 1-6 are presented in Table 1.

The subject of assay [4] is 4T1 breast tumor cells. The assay is described as follows: Cell proliferation assay. As to conditions: DMEM with 10% FBS, cells counted daily (FIG. 1). The format is cell-based, mouse. How it is done:
Cell Proliferation Assay: 4T1 breast tumor cells were trypsinized, resuspended in Dulbecco's Modified Eagle Medium (DMEM) with 10% FBS and counted. 5×10^4 cells were plated per well in a 6-well dish and grown in DMEM with 10% FBS. Each day of the assay, one well of each type of cell was trypsinized and the cells were counted.

Molecules are shown by their SMILES.

Regarding `O=C1CC/C=C\CNC(=O)[C@]2(O)C[C@@H](O)[C@@H](O)[C@@H](C2)O1` [Compound 1], the zone of inhibition at 50 µg/disc in assay [1] was determined as 9 mm. Moreover, the “closure of the wound (cell migration)” value with 4T1 breast tumor cells [2] is “prevented closure of the wound”. Further, the IC50 with 4T1 breast tumor cells [3] (unit column prints nM) is 77 ± 17 nM. For the same molecule, the 4T1 cell proliferation result with 4T1 breast tumor cells [4] is given as “does not affect 4T1 cell proliferation”.
`O=C1CC/C=C/CNC(=O)[C@]2(O)C[C@@H](O)[C@@H](O)[C@@H](C2)O1` [Compound 2] registered an IC50 in the assay with 4T1 breast tumor cells [3] (unit given in μM) greater than 250000 nM.
In the case of `O=C1CCCC/C=C\CNC(=O)[C@]2(O)C[C@@H](O)[C@@H](O)[C@@H](C2)O1` [Compound 3], the zone of inhibition at 50 µg/disc in assay [1] was 8.5 mm. For the same molecule, the midpoint of inhibition with 4T1 breast tumor cells [3] (unit given in μM), the IC50, lay at 525000 ± 163000 nM.
`O=C1CCCC/C=C/CNC(=O)[C@]2(O)C[C@@H](O)[C@@H](O)[C@@H](C2)O1` [Compound 4] had a zone of inhibition at 50 µg/disc in assay [1] of 7.5 mm. This molecule returned an IC50 with 4T1 breast tumor cells [3] (unit given in μM) of 12000 ± 2900 nM.
Turning to `CC(C)(C)OC(=O)NC(Cc1ccccc1)C(=O)O[C@@H]1C[C@]2(O)C[C@@H](OC(=O)CCCC/C=C\CNC2=O)[C@@H]1O` (stereo partly drawn) [Compound 5], in the assay on 4T1 breast tumor cells [3] (unit given in μM), the IC50 is greater than 500000 nM.
In turn, `CC(C)=CC(=O)O[C@@H]1C[C@]2(O)C[C@@H](OC(=O)CCCC/C=C\CNC2=O)[C@@H]1O` [Compound 6] registered an IC50 in the assay on 4T1 breast tumor cells [3] (unit column prints nM) of 550 ± 189 nM.
In assay [1], `CC1(C)S[C@@H]2[C@H](NC(=O)[C@H](N)c3ccccc3)C(=O)N2[C@H]1C(=O)O` [ampicillin, reference compound] registered a zone of inhibition at 50 µg/disc of 15 mm.
